Tests used:
[1] = Example 2 aqueous humor concentrations; format: in vivo, male New Zealand White rabbits; conditions: intravitreal, topical ocular, subcutaneous
Description: (§1) To measure the concentration of Compound 1 in plasma and ocular tissues following topical ocular, subcutaneous, and intravitreal administration, New Zealand White rabbits were administered Compound 1, and plasma and ocular samples were collected at pre-determined time points. Compound 1 formulations were prepared fresh on each day of dosing.
(§2) Ocular tissue samples from both eyes of each animal were collected and weights were recorded. Plasma and ocular tissue sample concentrations of Compound 1 were determined by LC-MS/MS.
(§3) Animals were anesthetized for ocular (topical) and intravitreal dosing following the 12IA7 IACUC protocol. Each rabbit received a bolus dose of test formulation either via topical ocular administration 3 times daily on Days 1 and 2 (at 0, 6, and 12 hours), and once on Day 3 (at 0 hours) into both eyes; via intravitreal administration into both eyes once on Day 1 (at 0 hours); or via subcutaneous administration 2 times daily on Days 1 and 2 (at 0 and 8 hours) and once daily on Day 3 (at 0 hours). Doses were given within an approximately 1 hour window each day where applicable.
(§4) On Day 1, for intravitreal administration, or on Day 3, for topical ocular and subcutaneous administration, at the appropriate ocular tissue collection time points, animals were euthanized and both eyes were enucleated immediately. Following enucleation, each eye was rinsed with phosphate-buffered saline. Ocular tissue samples from both eyes of each animal were collected at predetermined time points and weights were recorded. All the samples were frozen immediately on dry ice, and stored at −60° C. to −80° C. pending bioanalysis.
(§5) An LC-MS/MS method was developed for the determination of Compound 1 in rabbit aqueous tissues (plasma, aqueous and vitreous humor) and solid ocular tissue samples. A pre-study standard curve was analyzed to determine the specificity, range, and lower limit of quantitation of the method. Plasma and tissue homogenate study samples were extracted and analyzed. All the samples were treated identically to the standards.
(§6) One eight-point standard curve was used in each analytical batch. To be accepted, each batch must have had at least five of eight standards with accuracy within ±20% of nominal, except at the lower limit of quantification (LLOQ), where ±25% was acceptable.

[2] = Example 2 iris, retina, choroid and cornea tissue concentrations; format: in vivo, male New Zealand White rabbits
Description: as §1, §2, §3, §4, §5, §6

COC(=O)N[C@@H](Cc1ccccc1)C(=O)N[C@@H](Cc1ccc(NS(=O)(=O)O)cc1)c1csc(-c2cccs2)n1 [Compound 1]
rank order of exposure in aqueous and vitreous humor by route [1]: intravitreal>>topical ocular>subcutaneous | iris, retina, choroid, cornea concentrations, intravitreal relative to subcutaneous or ocular topical ([2]; both test formulations): higher concentrations | persistence of concentrations in all ocular tissues ([2]; intravitreal administration of both test formulations): persisted at 72 hours

— patent US10952992B2, “Methods of treating intraocular pressure with activators of Tie-2” (Aerpio Pharmaceuticals, Inc., priority 2015, dated 2021)
